Test results as given in ChEMBL document CHEMBL1140900, “Synthesis, biological evaluation, and docking studies of N-substituted acetamidines as selective inhibitors of inducible nitric oxide synthase” (J Med Chem, 2009).
pIC50: −log10 of the molar value.

Tests used:
[1] = target: Nitric oxide synthase, inducible (Homo sapiens, UniProt P35228); assay: Inhibition of iNOS in LPS treated human THP1 cell homogenate assessed as conversion of L-[2,3-3H]arginine to L-[2,3-3H]citrulline pre-incubated 1 hr before LPS challenge by whole cell assay; type: cell-based, THP-1
Nitric oxide synthase, inducible, sequence (P35228 whole entry): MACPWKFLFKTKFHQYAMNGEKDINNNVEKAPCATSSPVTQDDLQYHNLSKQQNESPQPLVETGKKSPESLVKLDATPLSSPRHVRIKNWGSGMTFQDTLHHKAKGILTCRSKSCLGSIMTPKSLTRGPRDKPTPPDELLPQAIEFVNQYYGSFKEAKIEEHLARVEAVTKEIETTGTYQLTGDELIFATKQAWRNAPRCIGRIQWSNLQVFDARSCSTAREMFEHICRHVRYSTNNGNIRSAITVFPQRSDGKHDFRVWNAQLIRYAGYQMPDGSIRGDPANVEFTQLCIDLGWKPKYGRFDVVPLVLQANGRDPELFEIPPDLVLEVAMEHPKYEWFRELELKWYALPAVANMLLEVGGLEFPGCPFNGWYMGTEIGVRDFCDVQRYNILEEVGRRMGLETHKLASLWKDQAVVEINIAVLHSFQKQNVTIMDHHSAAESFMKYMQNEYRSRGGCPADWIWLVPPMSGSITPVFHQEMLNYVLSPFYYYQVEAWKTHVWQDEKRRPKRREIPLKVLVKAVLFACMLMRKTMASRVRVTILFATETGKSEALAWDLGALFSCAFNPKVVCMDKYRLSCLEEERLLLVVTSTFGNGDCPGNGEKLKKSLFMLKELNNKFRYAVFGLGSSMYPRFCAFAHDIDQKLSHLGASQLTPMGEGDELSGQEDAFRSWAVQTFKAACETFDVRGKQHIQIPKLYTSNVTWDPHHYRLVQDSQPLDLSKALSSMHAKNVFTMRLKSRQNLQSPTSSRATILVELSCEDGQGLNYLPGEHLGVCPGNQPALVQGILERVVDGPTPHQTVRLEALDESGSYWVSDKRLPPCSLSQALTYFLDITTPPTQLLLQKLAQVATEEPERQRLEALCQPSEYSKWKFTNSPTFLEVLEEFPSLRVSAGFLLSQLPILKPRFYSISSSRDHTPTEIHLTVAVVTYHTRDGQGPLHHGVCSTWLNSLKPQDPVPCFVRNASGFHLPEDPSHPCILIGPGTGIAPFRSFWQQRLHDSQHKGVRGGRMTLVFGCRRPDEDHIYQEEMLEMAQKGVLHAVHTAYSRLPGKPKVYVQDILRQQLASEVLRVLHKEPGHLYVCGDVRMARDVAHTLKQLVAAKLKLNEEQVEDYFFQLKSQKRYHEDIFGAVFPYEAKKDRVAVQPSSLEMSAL

Nitric oxide synthase 3 = target: T1, Nitric oxide synthase 3 (Homo sapiens, UniProt P29474); assay: Inhibition of eNOS in LPS treated human THP1 cell homogenate assessed as conversion of L-[2,3-3H]arginine to L-[2,3-3H]citrulline pre-incubated 1 hr before LPS challenge by whole cell assay; type: cell-based, THP-1
T1 sequence (P29474 whole entry): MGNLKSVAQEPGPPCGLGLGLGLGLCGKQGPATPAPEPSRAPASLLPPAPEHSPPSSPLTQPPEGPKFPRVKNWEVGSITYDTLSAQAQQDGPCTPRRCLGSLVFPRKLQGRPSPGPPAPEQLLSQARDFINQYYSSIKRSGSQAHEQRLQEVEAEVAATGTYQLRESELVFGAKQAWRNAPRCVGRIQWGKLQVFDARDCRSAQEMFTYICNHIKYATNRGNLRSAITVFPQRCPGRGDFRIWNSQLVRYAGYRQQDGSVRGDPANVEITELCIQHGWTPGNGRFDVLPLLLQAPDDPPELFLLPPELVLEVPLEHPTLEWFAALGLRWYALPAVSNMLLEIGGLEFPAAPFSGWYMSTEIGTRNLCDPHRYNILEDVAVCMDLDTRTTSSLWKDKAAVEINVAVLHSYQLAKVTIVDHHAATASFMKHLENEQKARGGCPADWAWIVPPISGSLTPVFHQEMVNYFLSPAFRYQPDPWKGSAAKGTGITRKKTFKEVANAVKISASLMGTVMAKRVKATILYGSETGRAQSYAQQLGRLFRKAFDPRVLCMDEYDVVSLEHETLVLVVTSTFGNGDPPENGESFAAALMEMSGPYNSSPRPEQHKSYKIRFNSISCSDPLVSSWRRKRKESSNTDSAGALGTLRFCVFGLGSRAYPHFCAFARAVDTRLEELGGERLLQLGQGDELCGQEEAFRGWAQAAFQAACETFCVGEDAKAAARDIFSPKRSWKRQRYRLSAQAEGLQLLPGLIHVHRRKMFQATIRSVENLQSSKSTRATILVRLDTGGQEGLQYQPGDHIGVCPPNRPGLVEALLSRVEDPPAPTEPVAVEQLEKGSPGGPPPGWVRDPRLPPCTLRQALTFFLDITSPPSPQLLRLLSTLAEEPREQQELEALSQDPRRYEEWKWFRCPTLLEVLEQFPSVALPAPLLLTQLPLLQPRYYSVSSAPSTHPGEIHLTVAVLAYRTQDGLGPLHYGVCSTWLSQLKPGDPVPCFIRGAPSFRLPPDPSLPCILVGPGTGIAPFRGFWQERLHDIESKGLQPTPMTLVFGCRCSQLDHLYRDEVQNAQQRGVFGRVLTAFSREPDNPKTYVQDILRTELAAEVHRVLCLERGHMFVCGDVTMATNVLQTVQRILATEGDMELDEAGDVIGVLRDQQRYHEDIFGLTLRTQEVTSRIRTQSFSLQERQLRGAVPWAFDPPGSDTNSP

Homo sapiens = species on record: Homo sapiens; assay: Selectivity ratio of IC50 for human eNOS to IC50 for human iNOS

| Compound | pIC50 [1] | pIC50 (Nitric oxide synthase 3) | Ratio IC50 (Homo sapiens) |
| --- | --- | --- | --- |
| CC(=N)NCc1cccc(CNCc2ccncc2)c1 | 6.46 | 4.70 | 57 |
| CCOC(=O)N1CCC(NC(C)=N)CC1 | 6.60 | 4.05 | 360 |
| CC(=N)N[C@@H](C)c1ccccc1 | 6.35 | 3.52 | 666 |
| CC(=N)NCc1ccccc1 | 6.70 | 3.46 | 1750 |
| CCC(NC(C)=N)c1ccccc1 (racemic) | 6.60 | 4.10 | 320 |
| CC(=N)NCc1cccc(CNS(=O)(=O)c2ccc(C)cc2)c1 | 6.30 | 3.52 | 600 |
